{
  "source": "patent US4994376A",
  "about": "“Detection of bacteroides gingivalis” (priority 1987, dated 1991)",
  "format_in_all_cases": "biochemical",
  "key": {"B. asaccharolyticus": {"test_system": "B. asaccharolyticus", "conditions": "β-naphthylamine liberated after 60 minutes, 37° C.", "summary_of_the_method": "(§1)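 N-CBz-glycyl-glycyl-L-arginine-β-naphthylamide was hydrolysed for 1 hour at 37 °C, then coupled with Fast Garnet GBC (0.5 mg/ml) in 1M acetic acid buffer, pH 4.2, containing 10% Tween 20. After 15 minutes at room temperature, absorbance was read at 525 nm against a no-enzyme blank; activity is given as nmol β-naphthylamine released per 60 min.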"}, "C. ochracea": {"test_system": "C. ochracea", "conditions": "strain ATCC 27872; β-naphthylamine liberated after 60 minutes, 37° C.", "summary_of_the_method": "as §1"}, "B. loescheii": {"test_system": "B. loescheii", "conditions": "β-naphthylamine liberated after 60 minutes, 37° C.", "summary_of_the_method": "as §1"}, "B. levii": {"test_system": "B. levii", "conditions": "β-naphthylamine liberated after 60 minutes, 37° C.", "summary_of_the_method": "as §1"}, "B. mel. ss. intermedius": {"test_system": "B. mel. ss. intermedius", "conditions": "β-naphthylamine liberated after 60 minutes, 37° C.", "summary_of_the_method": "as §1"}, "Capnocytophaga sp.": {"test_system": "Capnocytophaga sp.", "conditions": "strain JD3-5; β-naphthylamine liberated after 60 minutes, 37° C.", "summary_of_the_method": "as §1"}, "[1]": {"test_system": "Capnocytophaga gingivalis", "conditions": "strain ATCC 33624; β-naphthylamine liberated after 60 minutes, 37° C.", "summary_of_the_method": "as §1"}, "Bacteroides gingivalis": {"test_system": "Bacteroides gingivalis", "conditions": "β-naphthylamine liberated after 60 minutes, 37° C.", "summary_of_the_method": "as §1"}, "B. denticola": {"test_system": "B. denticola", "assay": "Aminopeptidase activity on β-naphthylamide substrates", "conditions": "strain ATCC 33185; β-naphthylamine liberated after 60 minutes, 37° C.", "summary_of_the_method": "as §1"}, "B. intermedius": {"test_system": "B. intermedius", "assay": "Aminopeptidase activity on β-naphthylamide substrates", "conditions": "strain ATCC 25611; β-naphthylamine liberated after 60 minutes, 37° C.", "summary_of_the_method": "as §1"}, "B. corporis": {"test_system": "B. corporis", "assay": "Aminopeptidase activity on β-naphthylamide substrates", "conditions": "strain ATCC 33547; β-naphthylamine liberated after 60 minutes, 37° C.", "summary_of_the_method": "as §1"}, "C. sputigena": {"test_system": "C. sputigena", "assay": "Aminopeptidase activity on β-naphthylamide substrates", "conditions": "strain ATCC 33123; β-naphthylamine liberated after 60 minutes, 37° C.", "summary_of_the_method": "as §1"}, "B. melaninogenicus": {"test_system": "B. melaninogenicus", "assay": "Aminopeptidase activity on β-naphthylamide substrates", "conditions": "strain ATCC 25845; β-naphthylamine liberated after 60 minutes, 37° C.", "summary_of_the_method": "as §1"}, "Streptococcus mitis": {"test_system": "Streptococcus mitis", "conditions": "β-naphthylamine liberated after 60 minutes, 37° C.", "summary_of_the_method": "(§2)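 Aminopeptidase values express the nanomoles of β-naphthylamine freed from N-CBz-glycyl-glycyl-L-arginine-β-naphthylamide during a 60-minute, 37° C incubation. The liberated amine was coupled with stabilized diazonium salt Fast Garnet GBC and measured at 525 nm against an enzyme-free blank.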"}, "S. sanguis": {"test_system": "S. sanguis", "conditions": "β-naphthylamine liberated after 60 minutes, 37° C.", "summary_of_the_method": "as §2"}, "[2]": {"test_system": "Actinobacillus actinomycetemcomitans", "conditions": "β-naphthylamine liberated after 60 minutes, 37° C.", "summary_of_the_method": "as §2"}, "A. viscosus": {"test_system": "A. viscosus", "conditions": "β-naphthylamine liberated after 60 minutes, 37° C.", "summary_of_the_method": "as §2"}, "\"Anaerobic vibrio\"": {"test_system": "\"Anaerobic vibrio\"", "conditions": "strain SN2T2; β-naphthylamine liberated after 60 minutes, 37° C.", "summary_of_the_method": "as §2"}, "Actinomyces israeli": {"test_system": "Actinomyces israeli", "conditions": "β-naphthylamine liberated after 60 minutes, 37° C.", "summary_of_the_method": "as §2"}, "S. mutans": {"test_system": "S. mutans", "conditions": "strain ATCC 25175; β-naphthylamine liberated after 60 minutes, 37° C.", "summary_of_the_method": "as §2"}, "Veillonella sp.": {"test_system": "Veillonella sp.", "conditions": "strain SE1M2; β-naphthylamine liberated after 60 minutes, 37° C.", "summary_of_the_method": "as §2"}, "S. salivarius": {"test_system": "S. salivarius", "assay": "Aminopeptidase activity on β-naphthylamide substrates", "conditions": "β-naphthylamine liberated after 60 minutes, 37° C.", "summary_of_the_method": "as §2"}, "Lactobacillus casei": {"test_system": "Lactobacillus casei", "assay": "Aminopeptidase activity on β-naphthylamide substrates", "conditions": "β-naphthylamine liberated after 60 minutes, 37° C.", "summary_of_the_method": "as §2"}, "L. fermentum": {"test_system": "L. fermentum", "assay": "Aminopeptidase activity on β-naphthylamide substrates", "conditions": "strain ATCC 11581; β-naphthylamine liberated after 60 minutes, 37° C.", "summary_of_the_method": "as §2"}, "F. periodonticum": {"test_system": "F. periodonticum", "assay": "Aminopeptidase activity on β-naphthylamide substrates", "conditions": "strain EK1-15; β-naphthylamine liberated after 60 minutes, 37° C.", "summary_of_the_method": "as §2"}, "Haemophilus aphrophilus": {"test_system": "Haemophilus aphrophilus", "assay": "Aminopeptidase activity on β-naphthylamide substrates", "conditions": "β-naphthylamine liberated after 60 minutes, 37° C.", "summary_of_the_method": "as §2"}, "A. suis": {"test_system": "A. suis", "assay": "Aminopeptidase activity on β-naphthylamide substrates", "conditions": "strain ATCC 15557; β-naphthylamine liberated after 60 minutes, 37° C.", "summary_of_the_method": "as §2"}, "A. equuli": {"test_system": "A. equuli", "assay": "Aminopeptidase activity on β-naphthylamide substrates", "conditions": "strain ATCC 19392; β-naphthylamine liberated after 60 minutes, 37° C.", "summary_of_the_method": "as §2"}},
  "note": "Like-named read-outs stand apart in the source and are kept apart here. Peptide text beside a SMILES is read from it. * marks the point of attachment. βNA = c1ccc2cc(N*)ccc2c1",
  "data": [
    {"compound": "CC(C)C[C@H](NC(=O)[C@@H]1CCCN1C(=O)CN)C(=O)Nc1ccc2ccccc2c1", "note": "[Gly-Pro-Leu] (H-Gly-Pro-Leu-βNA)", "values": [
      {"measurement": "Aminopeptidase activity", "setting": "B. asaccharolyticus; strain 536B", "result": 3, "unit": "nmol"},
      {"measurement": "Aminopeptidase activity", "setting": "B. asaccharolyticus; strain ATCC 18569", "result": 0, "unit": "nmol"},
      {"measurement": "Aminopeptidase activity", "setting": "B. asaccharolyticus; strain ATCC 25260", "result": 3, "unit": "nmol"},
      {"measurement": "Aminopeptidase activity", "setting": "B. asaccharolyticus; strain ATCC 27067", "result": 4, "unit": "nmol"},
      {"measurement": "Aminopeptidase activity", "setting": "B. asaccharolyticus; strain NY446", "result": 0, "unit": "nmol"},
      {"measurement": "Aminopeptidase activity", "setting": "C. ochracea", "result": 41, "unit": "nmol"},
      {"measurement": "Aminopeptidase activity", "setting": "B. loescheii; strain ATCC 15930", "result": 1, "unit": "nmol"},
      {"measurement": "Aminopeptidase activity", "setting": "B. loescheii; strain VPI4196", "result": 1, "unit": "nmol"},
      {"measurement": "Aminopeptidase activity", "setting": "B. levii; strain 18-1-5", "result": 1, "unit": "nmol"},
      {"measurement": "Aminopeptidase activity", "setting": "B. levii; strain 18-1-8", "result": 0, "unit": "nmol"},
      {"measurement": "Aminopeptidase activity", "setting": "B. mel. ss. intermedius; strain ATCC 25261", "result": 1, "unit": "nmol"},
      {"measurement": "Aminopeptidase activity", "setting": "B. mel. ss. intermedius; strain ATCC 33563", "result": 2, "unit": "nmol"},
      {"measurement": "Aminopeptidase activity", "setting": "B. mel. ss. intermedius; strain NCTC 9336", "result": 1, "unit": "nmol"},
      {"measurement": "Aminopeptidase activity", "setting": "Capnocytophaga sp.", "result": 0, "unit": "nmol"},
      {"measurement": "Aminopeptidase activity", "setting": "[1]", "result": 58, "unit": "nmol"},
      {"measurement": "Aminopeptidase activity", "setting": "Bacteroides gingivalis; strain 9-14K-1", "result": 0, "unit": "nmol"},
      {"measurement": "Aminopeptidase activity", "setting": "Bacteroides gingivalis; strain 11-1-2", "result": 2, "unit": "nmol"},
      {"measurement": "Aminopeptidase activity", "setting": "Bacteroides gingivalis; strain 381", "result": 0, "unit": "nmol"},
      {"measurement": "Aminopeptidase activity", "setting": "Bacteroides gingivalis; strain 1021", "result": 0, "unit": "nmol"},
      {"measurement": "Aminopeptidase activity", "setting": "Bacteroides gingivalis; strain ATCC 33277", "result": 0, "unit": "nmol"},
      {"measurement": "Aminopeptidase activity", "setting": "Bacteroides gingivalis; strain FAYE 19m-1", "result": 0, "unit": "nmol"},
      {"measurement": "Aminopeptidase activity", "setting": "B. denticola", "result": 1, "unit": "nmol"},
      {"measurement": "Aminopeptidase activity", "setting": "B. intermedius", "result": 0, "unit": "nmol"},
      {"measurement": "Aminopeptidase activity", "setting": "B. corporis", "result": 2, "unit": "nmol"},
      {"measurement": "Aminopeptidase activity", "setting": "C. sputigena", "result": 28, "unit": "nmol"},
      {"measurement": "Aminopeptidase activity", "setting": "B. melaninogenicus", "result": 2, "unit": "nmol"},
      {"measurement": "Aminopeptidase activity", "setting": "Streptococcus mitis; strain ATCC 9815", "result": 27, "unit": "nmol"},
      {"measurement": "Aminopeptidase activity", "setting": "Streptococcus mitis; strain ATCC 15909", "result": 7, "unit": "nmol"},
      {"measurement": "Aminopeptidase activity", "setting": "Streptococcus mitis; strain ATCC 15912", "result": 11, "unit": "nmol"},
      {"measurement": "Aminopeptidase activity", "setting": "S. sanguis; strain ATCC 10556", "result": 11, "unit": "nmol"},
      {"measurement": "Aminopeptidase activity", "setting": "S. sanguis; strain ATCC 10557", "result": 6, "unit": "nmol"},
      {"measurement": "Aminopeptidase activity", "setting": "[2]; strain 67", "result": 1, "unit": "nmol"},
      {"measurement": "Aminopeptidase activity", "setting": "[2]; strain 75", "result": 1, "unit": "nmol"},
      {"measurement": "Aminopeptidase activity", "setting": "[2]; strain ATCC 29523", "result": 0, "unit": "nmol"},
      {"measurement": "Aminopeptidase activity", "setting": "[2]; strain NCTC 9709", "result": 0, "unit": "nmol"},
      {"measurement": "Aminopeptidase activity", "setting": "[2]; strain Y4", "result": 0, "unit": "nmol"},
      {"measurement": "Aminopeptidase activity", "setting": "A. viscosus; strain ATCC 19246", "result": 0, "unit": "nmol"},
      {"measurement": "Aminopeptidase activity", "setting": "A. viscosus; strain T14V", "result": 2, "unit": "nmol"},
      {"measurement": "Aminopeptidase activity", "setting": "\"Anaerobic vibrio\"", "result": 0, "unit": "nmol"},
      {"measurement": "Aminopeptidase activity", "setting": "Actinomyces israeli; strain ATCC 12103", "result": 0, "unit": "nmol"},
      {"measurement": "Aminopeptidase activity", "setting": "Actinomyces israeli; strain DK2-3", "result": 0, "unit": "nmol"},
      {"measurement": "Aminopeptidase activity", "setting": "S. mutans", "result": 0, "unit": "nmol"},
      {"measurement": "Aminopeptidase activity", "setting": "Veillonella sp.", "result": 0, "unit": "nmol"},
      {"measurement": "Aminopeptidase activity", "setting": "S. salivarius; strain ATCC 9759", "result": 2, "unit": "nmol"},
      {"measurement": "Aminopeptidase activity", "setting": "S. salivarius; strain ATCC 25975", "result": 0, "unit": "nmol"},
      {"measurement": "Aminopeptidase activity", "setting": "Lactobacillus casei; strain ATCC 7469", "result": 0, "unit": "nmol"},
      {"measurement": "Aminopeptidase activity", "setting": "Lactobacillus casei; strain ATCC 11578", "result": 0, "unit": "nmol"},
      {"measurement": "Aminopeptidase activity", "setting": "Lactobacillus casei; strain ATCC 11582", "result": 0, "unit": "nmol"},
      {"measurement": "Aminopeptidase activity", "setting": "L. fermentum", "result": 0, "unit": "nmol"},
      {"measurement": "Aminopeptidase activity", "setting": "F. periodonticum", "result": 1, "unit": "nmol"},
      {"measurement": "Aminopeptidase activity", "setting": "Haemophilus aphrophilus; strain ATCC 13252", "result": 0, "unit": "nmol"},
      {"measurement": "Aminopeptidase activity", "setting": "Haemophilus aphrophilus; strain ATCC 19415", "result": 0, "unit": "nmol"},
      {"measurement": "Aminopeptidase activity", "setting": "Haemophilus aphrophilus; strain NCTC 5908", "result": 0, "unit": "nmol"},
      {"measurement": "Aminopeptidase activity", "setting": "A. suis", "result": 0, "unit": "nmol"},
      {"measurement": "Aminopeptidase activity", "setting": "A. equuli", "result": 0, "unit": "nmol"}
    ]}
  ]
}
